Values quoted from earlier work as cited in US11453692B2, “Non-caloric sweeteners and methods for synthesizing” (Conagen Inc., priority 2014, dated 2022).

Conditions: sweetness relative to sucrose

Molecule	times sweeter than sucrose
C=C1C[C@@]23CCC4[C@](C)(C(=O)OC5OC(CO)C(O)C(O)C5O)CCC[C@@]4(C)[C@@H]2CC(OC2OC(CO)C(O)C(OC4OC(CO)C(O)C(O)C4O)C2OC2OC(C)C(O)C(O)C2O)C1C3 (some centres unmarked) [Rebaudioside C]	40-60 times
Stevioside	100-150 times
